Reference: US12409171B2, “Pharmaceutically active pyrazolo-pyridone modulators of DCN1/2-mediated cullin neddylation” (UNIVERSITY OF KENTUCKY RESEARCH FOUNDATION, priority 2019, dated 2025)

Target: DCN1 (Homo sapiens (Human), UniProt Q96GG9)
Assay: TR-FRET binding assay (biotin-DCN1 / Ac-UBE2M12-AlexaFluor488)
Conditions: mean ± SD (n); read-out: DCN1_TRFRET Mean EC50
Summary of the method: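 Biotinylated DCN1 binding to Ac-UBE2M12-AlexaFluor488 read by TR-FRET; assay cocktail pre-incubated 1 h at room temperature before compounds added from DMSO stocks by pin transfer. IC50 is the mean of three replicates ± SD; compounds tested in triplicate or more.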

DCN1, sequence (Q96GG9 whole entry): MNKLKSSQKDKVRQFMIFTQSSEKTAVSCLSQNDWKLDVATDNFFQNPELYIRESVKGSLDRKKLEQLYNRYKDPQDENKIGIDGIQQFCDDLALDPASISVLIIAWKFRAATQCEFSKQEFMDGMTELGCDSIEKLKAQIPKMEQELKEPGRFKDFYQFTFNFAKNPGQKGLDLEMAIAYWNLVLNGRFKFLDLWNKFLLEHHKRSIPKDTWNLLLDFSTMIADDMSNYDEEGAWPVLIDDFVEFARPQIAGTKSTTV

Question: With CCN1C(=O)[C@@H](NC(=O)c2cccc(C(F)(F)F)c2)[C@@H](c2ccc(F)cc2)c2c(CBr)nn(-c3ccccc3)c21 [RG-0014144, N-[(4S,5S)-3-(bromomethyl)-7-ethyl-4-(4-fluorophenyl)-6-oxo-1-phenyl-1H,4H,5H,6H,7H-pyrazolo[3,4-b]pyridin-5-yl]-3-(trifluoromethyl)benzamide] as the compound, how does the EC50 read?
Answer: 186 ± 32.6 nM

Question: CCN1C(=O)[C@@H](NC(=O)c2cccc(C)c2)[C@@H](c2ccc(F)cc2)c2c(C)nn(-c3ccccc3F)c21 [RG-0008870, N-[(4S,5S)-7-ethyl-1-(2-fluorophenyl)-4-(4-fluorophenyl)-3-methyl-6-oxo-1H,4H,5H,6H,7H-pyrazolo[3,4-b]pyridin-5-yl]-3-methylbenzamide] was tested. Which EC50 did it give?
Answer: 187 ± 5.73 nM

Question: With CCN1C(=O)[C@@H](NC(=O)c2cc(C)cs2)[C@@H](c2ccc(F)cc2)c2c(C)nn(-c3ccccc3)c21 [RG-0014044, N-[(4S,5S)-7-ethyl-4-(4-fluorophenyl)-3-methyl-6-oxo-1-phenyl-1H,4H,5H,6H,7H-pyrazolo[3,4-b]pyridin-5-yl]-4-methylthiophene-2-carboxamide] as the compound, how does the EC50 read?
Answer: 785 ± 79.6 nM

Question: CCN1C(=O)[C@@H](NC(=O)c2ccc3c(ccn3C)c2)[C@@H](c2ccc(F)cc2)c2c(C)nn(-c3ccccc3)c21 [RG-0014151, N-[(4S,5S)-7-ethyl-4-(4-fluorophenyl)-3-methyl-6-oxo-1-phenyl-1H,4H,5H,6H,7H-pyrazolo[3,4-b]pyridin-5-yl]-1-methyl-1H-indole-5-carboxamide] was tested. Which EC50 did it give?
Answer: 3230 ± 806 nM

Question: Which EC50 does the source give for Cc1nn(-c2ccccc2)c2c1[C@H](c1ccc(F)cc1)[C@H](NC(=O)c1cccc(C(F)(F)F)c1)C(=O)N2C1CCC1 [RG-0013050, N-[(4S,5S)-7-cyclobutyl-4-(4-fluorophenyl)-3-methyl-6-oxo-1-phenyl-1H,4H,5H,6H,7H-pyrazolo[3,4-b]pyridin-5-yl]-3-(trifluoromethyl)benzamide] here?
Answer: 2580 ± 247 nM

Question: Which EC50 does the source give for C=CCN1C(=O)[C@@H](NC(=O)c2cccc(C(F)(F)F)c2)[C@@H](c2ccc(F)cc2)c2c(C)nn(-c3ccccc3)c21 [RG-0014007, N-[(4S,5S)-4-(4-fluorophenyl)-3-methyl-6-oxo-1-phenyl-7-(prop-2-en-1-yl)-1H,4H,5H,6H,7H-pyrazolo[3,4-b]pyridin-5-yl]-3-(trifluoromethyl)benzamide] here?
Answer: 1550 ± 157 nM

Question: CCN1C(=O)[C@@H](NC(=O)c2cccc(C)c2)[C@@H](c2ccc(F)cc2)c2c(C)nn(CC)c21 [RG-0008869, N-[(4S,5S)-1,7-diethyl-4-(4-fluorophenyl)-3-methyl-6-oxo-1H,4H,5H,6H,7H-pyrazolo[3,4-b]pyridin-5-yl]-3-methylbenzamide] was tested. Which EC50 did it give?
Answer: 384 ± 30.6 nM

Question: With Cc1cccc(C(=O)N[C@@H]2C(=O)N(C(C)C)c3c(c(C)nn3-c3ccccc3)[C@@H]2c2ccc(F)cc2)c1 [RG-0008670, N-[(4S,5S)-4-(4-fluorophenyl)-3-methyl-6-oxo-1-phenyl-7-(propan-2-yl)-1H,4H,5H,6H,7H-pyrazolo[3,4-b]pyridin-5-yl]-3-methylbenzamide] as the compound, how does the EC50 read?
Answer: 4140 ± 765 nM

Question: How did the EC50 turn out when CCN1C(=O)[C@@H](NC(=O)c2cccc(C(F)(F)F)c2)[C@@H](c2ccc(C)s2)c2c(C)nn(-c3ccccc3)c21 [RG-0014004, N-[(4S,5S)-7-ethyl-3-methyl-4-(5-methylthiophen-2-yl)-6-oxo-1-phenyl-1H,4H,5H,6H,7H-pyrazolo[3,4-b]pyridin-5-yl]-3-(trifluoromethyl)benzamide] was run?
Answer: 1410 ± 15.9 nM

Question: With CCN1C(=O)[C@@H](NC(=O)c2cccc(C)c2)[C@@H](c2ccc(F)cc2)c2c(C)nn(C(C)C)c21 [RG-0008860, N-[(4S,5S)-7-ethyl-4-(4-fluorophenyl)-3-methyl-6-oxo-1-(propan-2-yl)-1H,4H,5H,6H,7H-pyrazolo[3,4-b]pyridin-5-yl]-3-methylbenzamide] as the compound, how does the EC50 read?
Answer: 467 ± 28 nM

Question: For CCN1C(=O)[C@@H](NC(=O)c2cccc(C)c2)[C@@H](c2ccc(F)cc2)c2c(C)nn(C3CCCCC3)c21 [RG-0008877, N-[(4S,5S)-1-cyclohexyl-7-ethyl-4-(4-fluorophenyl)-3-methyl-6-oxo-1H,4H,5H,6H,7H-pyrazolo[3,4-b]pyridin-5-yl]-3-methylbenzamide], which EC50 is on record?
Answer: 835 ± 34.8 nM
